Results as given in EP0164478A2, “Citric-acid salt of (-)vinburnine and process for its preparation” (COVEX (S.A.), priority 1984, dated 1985).
Structures can show the parent of a compound that is named as a salt.

What was measured:
[1] = DL50 in the dog, intravenous administration; assay type: in vivo, chien; settings: i.v.; for DL50: relative to vinburnine = 1,0 (arbitrary)
Source text: Les propriétés pharmacologiques du citrate de vinburnine ont été utlisées en thérapie avec de bons résultats.

[2] = tested on: circulation cérébrale (artère carotide interne); assay: Cerebral circulation (internal carotid artery) and vascular resistance after intravenous and intra-arterial administration in dogs; assay type: in vivo, chiens; settings: relative to vinburnine = 1,0 (arbitrary); for CERVEAU Diminution résistance vasculaire i.v. / CERVEAU augmentation circulation i.v.: 1 à 4 mg/kg, 4 mg/kg
Protocol: D'autre part, on a réalisé une étude spr la pression sanguine et la circulation cérébrale en administrant des doses intraveineuses de 1 à 4 mg/kg d'animal.
Dans l'étude de l'effet de ce composé, on a enregistré et calculé la circulation cérébrale (artère carotide interne) et la résistance vasculaire lors de l'administration des composés par voie intraveineuse et intraartérielle chez des chiens. Les valeurs données dans le tableau suivant sont rapportés à la valeur de 1,0 donnée arbitrairement à la vinburnine.

[3] = tested on: consommation cérébrale du C14-desoxyglucose; assay: Cerebral consumption of C14-labelled deoxyglucose in dogs (Fig. 1); assay type: in vivo, chiens; settings: 1 à 4 Mg/kg, C14-deoxyglucose given orally, compared with untreated animal and with vinburnine (Fig. 1)
Source text: (§1) L'invention sera mieux comprise à la lecture du complément de description qui suit se référant aux dessins annexés dans lesquels: • - La Fig.l est une illustration graphique de l'augmentation de consommation cérébrale de desoxyglucose chez un animal traité avec le citrate de vinburnine • - La Fig.2, est une illustration graphique de l'augmentation de la dissociation de l'oxyhémoglobine chez un animal traité avec le citrate de vinburnine. Dans l'étude sur l'augmentation de la consommation du glucose, on a utilisé des doses de 1 à 4 Mg/kg de citrate de vinburnine chez des chiens auxquels on administre du deoxyglucose marqué au C14, par voie orale.
(§2) Cette différence observée dans l'importance de la dissociation de l'oxyhémoglobine par la vinburnine et le citrate de vinburnine est illustrée sur le graphique de la Fig.2.

oxyhémoglobine = assay: Dissociation of oxyhaemoglobin in anaesthetised dogs (Fig. 2); assay type: in vivo, chiens; settings: 5mg/kg (Fig. 2)
Source text: as §1, §2

Solubility in water = assay type: physicochemical; settings: water / aqueous solution

| SMILES | valeurs de DL50 ([1]; in words, compared with vinburnine base) | DL50 [1] | CERVEAU Diminution résistance vasculaire i.a. [2] | CERVEAU augmentation circulation i.a. [2] | CERVEAU Diminution résistance vasculaire i.v. [2] | CERVEAU augmentation circulation i.v. [2] | consommation cérébrale du C14-desoxyglucose [3] | dissociation de l'oxyhémoglobine (oxyhémoglobine) | solubilité dans l'eau (Solubility in water) |
| --- | --- | --- | --- | --- | --- | --- | --- | --- | --- |
| CC[C@]12CCCN3CCc4c(n(c5ccccc45)C(=O)C1)[C@@H]32 [citrate de vinburnine, citrate de (-) vinburnine] | sensiblement inférieures à celles correspondant à la vinburnine sous forme de base | 1,2 | 0,6 | 0,8 | 0,8 | 0,9 | consommation du glucose plus importante | augmentation dans la dissociation de l'oxyhémoglobine | soluble en solution aqueuse |
| CC[C@]12CCCN3CCc4c(n(c5ccccc45)C(=O)C1)[C@@H]32 [vinburnine] | – | 1,0 | 1,0 | 1,0 | 1,0 | 1,0 | augmentation de la consommation cérébrale du C14-desoxyglucose | – | insoluble dans l'eau |
